{"source": "paper PMC5247677", "about": "(Scientific Reports, 2017)", "key": {"[1]": {"system": "NaV1.7", "conditions": "cited from earlier work", "text": "In general, spider venom-derived peptides bind to the voltage-sensing domains of NaV channels to modify gating associated with channel activation and inactivation."}, "[2]": {"system": "rat NaV1.7 channel", "conditions": "cited from earlier work"}, "[3]": {"system": "NaV1.7", "conditions": "30 mg/kg; cited from earlier work"}, "[4]": {"system": "carrageenan-induced mechanical allodynia in mice", "test": "Carrageenan-induced mechanical allodynia (electronic von Frey)", "format": "in vivo, mouse (C57BL/6 J)", "description": "(§1) For behavioural assessment we used adult male C57BL/6 J mice or Sprague Dawley rats aged 5–8 weeks. Animals were housed in groups of 2–4 per cage, under 12 h light-dark cycles with standard rodent chow and water ad libitum. All assessments were performed by a blinded investigator unaware of the treatment each animal received. Ethical approval for in vivo experiments in animals was obtained from the University of Queensland, University of Sydney or United Kingdom Home Office animal ethics committee. Experiments involving animals were conducted in accordance with the International Association for the Study of Pain Guidelines for the Use of Animals in Research and the Australian Code of Practice for the Care and Use of Animals for Scientific Purposes, 8th edition (2013).\n(§2) Carrageenan (1% w/v) was administered by i.pl injection in mice as previously described. Behavioural assessment was performed 3 h post-injection. […] Mechanical thresholds were determined using electronic von Frey (MouseMet Electronic von Frey, TopCat Metrology, UK) as previously described. Thermal thresholds were determined using the thermal probe test (MouseMet Thermal, TopCat Metrology) as described."}, "[5]": {"system": "noxious heat response in mice", "test": "Hot plate test (50 °C), noxious heat", "format": "in vivo, mouse (C57BL/6 J)", "conditions": "30 mg/kg i.p., control 25.9 ± 1.8 s, P > 0.05, n = 6–16"}, "[6]": {"conditions": "cited from earlier work", "text": "(§3) However, while NaV1.7 is expressed on axons, it is unlikely to have a major role in action potential propagation, given it has slow recovery from fast inactiv ..."}, "[7]": {"system": "formalin-induced pain in mice", "test": "Formalin-induced spontaneous pain behaviours", "format": "in vivo, mouse (C57BL/6 J)", "description": "as §1\nFormalin (1% v/v) was administered by i.pl injection in mice as previously described. […] Spontaneous pain behaviours were counted from video recordings. Phase I was defined as 0–10 min and Phase II defined as 10–55 min following formalin injection."}, "[8]": {"system": "carrageenan-induced thermal allodynia in mice", "test": "Carrageenan-induced thermal allodynia (thermal probe test)", "format": "in vivo, mouse (C57BL/6 J)", "conditions": "P > 0.05", "description": "as §1, §2"}, "[9]": {"system": "mice and human lacking functional NaV1.7", "conditions": "in vivo; cited from earlier work"}, "[10]": {"system": "acute heat responses in mice", "format": "in vivo, mouse (C57BL/6 J)", "conditions": "n = 6", "description": "Paw-withdrawal latency in mice pre-administered phlotoxin 1 (i.p. 50 μg/kg; Venomtech, Valbonne, France), thiorphan (i.p. 20 mg/kg), buprenorphine (i.p. 50 μg/kg), or combinations, was determined using the Hargreaves apparatus (Plantar Analgesia Meter, IITC, CA, USA), with three withdrawal responses measured per animal."}, "[11]": {"system": "inflammatory pain in rodents", "conditions": "rodent model of inflammatory pain; cited from earlier work", "text": "as §3"}, "[12]": {"system": "NaV isoforms", "conditions": "up to 2 μM; cited from earlier work"}}, "note": "Read-outs that look alike come from different tables or passages of the source.", "data": [{"compound": "Cn1nccc1-c1ccccc1Oc1ccc(S(=O)(=O)Nc2nccs2)cc1C#N", "note": "[PF-04856264]", "values": [{"measurement": "state preference at NaV1.7", "setting": "[1]", "value": "preferentially bind to the slow inactivated state"}, {"measurement": "potency at the rat NaV1.7 channel", "setting": "[2]", "value": "low potency at the rat NaV1.7 channel"}, {"measurement": "efficacy in the OD1 model", "setting": "[3]", "value": "efficacy in the OD1 model at a dose of 30 mg/kg was previously reported"}, {"measurement": "paw withdrawal force (PWF)", "setting": "[4]; PF-04856264 30 mg/kg i.p., control 1.2 ± 0.2 g, P > 0.05, n = 4–12", "value": "1.5 ± 0.3", "unit": "g"}, {"measurement": "time to withdrawal, hot plate", "setting": "[5]", "value": "30.7 ± 3.8", "unit": "s"}, {"measurement": "blood-brain barrier penetration", "setting": "[6]; expectation", "value": "unlikely to cross the blood-brain barrier"}, {"measurement": "formalin Phase I and Phase II pain behaviours", "setting": "[7]; 30 mg/kg i.p., formalin 1% i.pl., P > 0.05, two-way ANOVA, n = 4–15", "value": "neither Pn3a (3 mg/kg i.p.) (Fig. 7d) or PF-04856264 (30 mg/kg ip.) (Figure 7e) significantly reduced Phase I or Phase II pain behaviours"}, {"measurement": "paw withdrawal temperature (PWT)", "setting": "[8]; PF-04856264 30 mg/kg i.p., control 44.1 ± 0.5 °C, n = 4–12", "value": "44.4 ± 1.2", "unit": "°C"}]}, {"compound": "Nc1[nH]ncc1-c1cc(Cl)ccc1Oc1cc(F)c(S(=O)(=O)Nc2cscn2)cc1Cl", "note": "[PF-05089771]", "values": [{"measurement": "state preference at NaV1.7", "setting": "[1]", "value": "preferentially bind to the slow inactivated state"}]}, {"compound": "NCC1(CC(=O)O)CCCCC1", "note": "[gabapentin]", "values": [{"measurement": "paw withdrawal force (PWF)", "setting": "[4]; gabapentin 100 mg/kg i.p., control 1.1 ± 0.3 g, P > 0.05, n = 3–8", "value": "1.1 ± 0.1", "unit": "g"}, {"measurement": "paw withdrawal temperature (PWT)", "setting": "[8]; gabapentin 100 mg/kg i.p., control 44.5 ± 0.9 °C, n = 3–8", "value": "45.4 ± 0.5", "unit": "°C"}]}, {"compound": "C=CCN1CC[C@]23c4c5ccc(O)c4O[C@H]2C(=O)CC[C@@]3(O)[C@H]1C5", "note": "[naloxone]", "values": [{"measurement": "reversal of analgesia", "setting": "[9]", "value": "substantially reverses analgesia"}]}, {"compound": "COc1ccc2c3c1O[C@H]1C(=O)CC[C@@]4(O)[C@@H](C2)N(C)CC[C@]314", "note": "[oxycodone]", "values": [{"measurement": "paw withdrawal force (PWF)", "setting": "[4]; oxycodone 0.67 mg/kg i.p., control 1.2 ± 0.2 g, n = 4–12", "value": "1.8 ± 0.2", "unit": "g"}, {"measurement": "pain behaviours, formalin Phase II", "setting": "[7]; oxycodone 1 mg/kg i.p., control 227 ± 14, n = 7–11", "value": "231 ± 22"}]}, {"compound": "O=C(O)CNC(=O)C(CS)Cc1ccccc1", "note": "(centres unmarked) [thiorphan]", "values": [{"measurement": "time to withdrawal, acute heat", "setting": "[10]; thiorphan 20 mg/kg i.p., control 5.7 ± 0.9 s", "value": "5.0 ± 0.4", "unit": "s"}]}, {"compound": "ProTx-II: NaV1.7 selective spider peptide from the venom of Thrixopelma pruriens", "values": [{"measurement": "onset of effect at NaV1.7", "setting": "[1]", "value": "slow onset of effect"}, {"measurement": "analgesic activity", "setting": "[11]", "value": "lack analgesic activity"}, {"measurement": "plasma levels", "setting": "[6]; rodent", "value": "plasma levels sufficient to inhibit NaV1.7 in vitro"}]}, {"compound": "buprenorphine", "values": [{"measurement": "time to withdrawal, acute heat", "setting": "[10]; buprenorphine 50 μg/kg i.p., control 6.3 ± 0.5 s", "value": "7.2 ± 0.5", "unit": "s"}]}, {"compound": "phlotoxin 1: previously characterized spider peptide NaV1.7 inhibitor", "values": [{"measurement": "IC50", "setting": "[1]", "value": 260, "unit": "nM"}, {"measurement": "effect on other NaV isoforms", "setting": "[12]", "value": "no effect on other NaV isoforms"}, {"measurement": "time to withdrawal, acute heat", "setting": "[10]; phlotoxin 1 50 μg/kg i.p., buprenorphine experiment, control 6.3 ± 0.5 s", "value": "5.8 ± 0.7", "unit": "s"}, {"measurement": "time to withdrawal, acute heat", "setting": "[10]; phlotoxin 1 50 μg/kg i.p., thiorphan experiment, control 5.7 ± 0.9 s", "value": "7.3 ± 0.9", "unit": "s"}]}]}
